Experimental data: the NIST ThermoML archive (doi:10.1016/j.jct.2016.02.009)

Assay: molar heat capacity at constant pressure
Settings: 101.33 kPa, Small (less than 1 g) adiabatic calorimetry

CCCCCCCCCCCCCCCCn1cc[n+](C)c1.O=S(=O)([N-]S(=O)(=O)C(F)(F)F)C(F)(F)F
Settings | molar heat capacity at constant pressure [J/K/mol]
240 K, Crystal 2 | 635.6
240.65 K, Crystal 2 | 637.6
242.87 K, Crystal 2 | 643.5
245.08 K, Crystal 2 | 650
247.28 K, Crystal 2 | 657
249.47 K, Crystal 2 | 663.5
250 K, Crystal 2 | 665.4
251.67 K, Crystal 2 | 671.1
253.85 K, Crystal 2 | 678.2
256.03 K, Crystal 2 | 685.8
258.19 K, Crystal 2 | 693.5
260 K, Crystal 2 | 700.6
260.35 K, Crystal 2 | 701.7
262.5 K, Crystal 2 | 710.5
264.64 K, Crystal 2 | 719.9
266.77 K, Crystal 2 | 729.9
268.89 K, Crystal 2 | 740.5
270 K, Crystal 2 | 745.5
271 K, Crystal 2 | 751.1
273.1 K, Crystal 2 | 761.1
275.18 K, Crystal 2 | 773.4
277.25 K, Crystal 2 | 786.9
279.3 K, Crystal 2 | 801
280 K, Crystal 2 | 806.6
281.34 K, Crystal 2 | 816.9
283.37 K, Crystal 2 | 834.5
285.38 K, Crystal 2 | 853.3
287.36 K, Crystal 2 | 875.7
289.32 K, Crystal 2 | 901.5
290 K, Crystal 2 | 909.7
291.26 K, Crystal 2 | 930.9
293.07 K, Crystal 2 | 958.5
293.16 K, Crystal 2 | 965
293.61 K, Crystal 2 | 968.5
294.12 K, Crystal 2 | 978.5
294.63 K, Crystal 2 | 990.3
295.02 K, Crystal 2 | 1004
295.14 K, Crystal 2 | 1002
295.64 K, Crystal 2 | 1014
296.14 K, Crystal 2 | 1027
296.64 K, Crystal 2 | 1039
296.85 K, Crystal 2 | 1050
297.14 K, Crystal 2 | 1053
297.63 K, Crystal 2 | 1068
298.11 K, Crystal 2 | 1082
298.15 K, Crystal 2 | 1084
298.6 K, Crystal 2 | 1098
298.63 K, Crystal 2 | 1103
299.08 K, Crystal 2 | 1113
299.55 K, Crystal 2 | 1129
300 K, Crystal 2 | 1146
300.03 K, Crystal 2 | 1146
300.36 K, Crystal 2 | 1161
300.49 K, Crystal 2 | 1161
300.96 K, Crystal 2 | 1177
301.42 K, Crystal 2 | 1193
301.88 K, Crystal 2 | 1207
302.1 K, Crystal 2 | 1219
302.34 K, Crystal 2 | 1222
302.79 K, Crystal 2 | 1235
303.24 K, Crystal 2 | 1248
303.69 K, Crystal 2 | 1253
303.84 K, Crystal 2 | 1262
304.13 K, Crystal 2 | 1267
304.58 K, Crystal 2 | 1271
305.02 K, Crystal 2 | 1273
305.47 K, Crystal 2 | 1274
305.5 K, Crystal 1 | 1274
305.5 K, Crystal 2 | 1274
305.56 K, Crystal 1 | 1278
305.91 K, Crystal 1 | 1275
306.36 K, Crystal 1 | 1271
306.8 K, Crystal 1 | 1269
307.24 K, Crystal 1 | 1268
307.28 K, Crystal 1 | 1272
307.69 K, Crystal 1 | 1266
308.14 K, Crystal 1 | 1261
308.58 K, Crystal 1 | 1257
309.01 K, Crystal 1 | 1254
309.03 K, Crystal 1 | 1251
309.48 K, Crystal 1 | 1242
309.93 K, Crystal 1 | 1229
310 K, Crystal 1 | 1229
310.39 K, Crystal 1 | 1187
310.81 K, Crystal 1 | 1097
310.86 K, Crystal 1 | 1054
311.36 K, Crystal 1 | 989.7
311.88 K, Crystal 1 | 984.4
312.39 K, Crystal 1 | 986.1
312.73 K, Crystal 1 | 995.5
312.9 K, Crystal 1 | 992
313.41 K, Crystal 1 | 997.9
313.91 K, Crystal 1 | 1011
314.42 K, Crystal 1 | 1032
314.68 K, Crystal 1 | 1051
316.51 K, Crystal 1 | 1261
319.25 K, Crystal 1 | 1044
319.25 K, Liquid | 972
320 K, Liquid | 972
320.76 K, Liquid | 972.6
321.02 K, Liquid | 972.6
322.55 K, Liquid | 974.4
322.92 K, Liquid | 974.4
324.34 K, Liquid | 976.2
324.82 K, Liquid | 975.6
326.13 K, Liquid | 977.9
326.72 K, Liquid | 977.3
327.92 K, Liquid | 978.5
328.62 K, Liquid | 979.7
329.71 K, Liquid | 980.3
330 K, Liquid | 981
330.52 K, Liquid | 981.4
331.5 K, Liquid | 982
332.43 K, Liquid | 982.6
333.29 K, Liquid | 983.8
334.33 K, Liquid | 984.4
335.08 K, Liquid | 985.6
336.23 K, Liquid | 986.1
336.87 K, Liquid | 986.7
338.13 K, Liquid | 988.5
338.66 K, Liquid | 989.1
340 K, Liquid | 990
340.03 K, Liquid | 990.3
340.45 K, Liquid | 990.3
341.93 K, Liquid | 991.4
342.24 K, Liquid | 992
343.84 K, Liquid | 993.8
344.04 K, Liquid | 993.2
345.74 K, Liquid | 995
345.83 K, Liquid | 995
347.62 K, Liquid | 997.3
347.64 K, Liquid | 996.7
349.41 K, Liquid | 998.5
349.55 K, Liquid | 999.7
350 K, Liquid | 1000
351.2 K, Liquid | 1000
351.45 K, Liquid | 1001
353 K, Liquid | 1003
353.35 K, Liquid | 1003
354.79 K, Liquid | 1004
355.25 K, Liquid | 1006
356.58 K, Liquid | 1007
357.16 K, Liquid | 1007
358.37 K, Liquid | 1009
359.06 K, Liquid | 1009
360 K, Liquid | 1010
360.16 K, Liquid | 1011
360.96 K, Liquid | 1011
361.95 K, Liquid | 1013
362.86 K, Liquid | 1013
363.74 K, Liquid | 1014
364.75 K, Liquid | 1015
365.52 K, Liquid | 1016
366.65 K, Liquid | 1018
367.31 K, Liquid | 1018
368.55 K, Liquid | 1020
370 K, Liquid | 1022
